According to the supplement of paper PMC5908809:

Experiments:
NK-YS (IL-2 2.5 ng/mL) [1] = test: drug sensitivity score (DSS) (DSS units); higher = more sensitive; extreme values may be limits of the assay; settings: 72 h
[2] = tested on: normal primary NK cells, pool 3 (3 donors) (IL-2 2.5 ng/mL); test: as above; settings: 72 h
NKL (IL-2 2.5 ng/mL) [3] = test: as above; settings: 72 h
NK-92 (IL-2 2.5 ng/mL) [4] = test: as above; settings: 72 h
[5] = tested on: normal primary NK cells, pool 1 (3 donors) (IL-2 2.5 ng/mL); test: as above; settings: 72 h
[6] = tested on: normal primary NK cells, pool 1 (3 donors), resting (IL-2 0 ng/mL); test: as above; settings: 72 h
[7] = tested on: normal primary NK cells, pool 2 (3 donors) (IL-2 2.5 ng/mL); test: as above; settings: 72 h
IMC-1 (IL-2 20 ng/mL) [8] = test: as above; settings: 72 h
YT (IL-2 2.5 ng/mL) [9] = test: as above; settings: 72 h
KHYG-1 (IL-2 2.5 ng/mL) [10] = test: as above; settings: 72 h
KAI3 (IL-2 2.5 ng/mL) [11] = test: as above; settings: 72 h
DERL-7 (IL-2 2.5 ng/mL) [12] = test: as above; settings: 72 h
SNK-6 (IL-2 2.5 ng/mL) [13] = test: as above; settings: 72 h
NK-YS (IL-2 2.5 ng/mL) [14] = test: percent inhibition of viability; higher = more inhibition; settings: 72 h
[15] = tested on: normal primary NK cells, pool 3 (3 donors) (IL-2 2.5 ng/mL); test: as above; settings: 72 h
NKL (IL-2 2.5 ng/mL) [16] = test: as above; settings: 72 h
NK-92 (IL-2 2.5 ng/mL) [17] = test: as above; settings: 72 h
[18] = tested on: normal primary NK cells, pool 1 (3 donors) (IL-2 2.5 ng/mL); test: as above; settings: 72 h
[19] = tested on: normal primary NK cells, pool 1 (3 donors), resting (IL-2 0 ng/mL); test: as above; settings: 72 h
[20] = tested on: normal primary NK cells, pool 2 (3 donors) (IL-2 2.5 ng/mL); test: as above; settings: 72 h
IMC-1 (IL-2 20 ng/mL) [21] = test: as above; settings: 72 h
YT (IL-2 2.5 ng/mL) [22] = test: as above; settings: 72 h
KHYG-1 (IL-2 2.5 ng/mL) [23] = test: as above; settings: 72 h
KAI3 (IL-2 2.5 ng/mL) [24] = test: as above; settings: 72 h
DERL-7 (IL-2 2.5 ng/mL) [25] = test: as above; settings: 72 h
SNK-6 (IL-2 2.5 ng/mL) [26] = test: as above; settings: 72 h
[27] = tested on: normal NK cells expanded with K562-aAPC; test: drug sensitivity score (DSS) (DSS units); higher = more sensitive; extreme values may be limits of the assay; settings: 72 h; IL-2 2.5 ng/mL
Experimental: (§1)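 Drug sensitivity and resistance testing on K562-aAPC-expanded normal NK cells: 5 concentrations (10-fold steps over a 10,000-fold range), 72 h at 37 °C, viability by CellTiter-Glo normalised to DMSO and benzethonium chloride controls; DSS from the fitted curve.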

[28] = tested on: normal NK cells expanded with K562-aAPC; test: percent inhibition of viability; higher = more inhibition; settings: 72 h, IL-2 2.5 ng/mL
Experimental: as §1

COc1cc(CCc2cc(NC(=O)c3ccc(N4CC(C)NC(C)C4)cc3)n[nH]2)cc(OC)c1 (configuration not stated) [AZD4547] (max concentration tested 1000 nM)
Settings | drug sensitivity score
DERL-7 (IL-2 2.5 ng/mL) [12] | 0
IMC-1 (IL-2 20 ng/mL) [8] | 0.05
KAI3 (IL-2 2.5 ng/mL) [11] | 2.12
KHYG-1 (IL-2 2.5 ng/mL) [10] | 0
NK-92 (IL-2 2.5 ng/mL) [4] | 0
NK-YS (IL-2 2.5 ng/mL) [1] | 0
NKL (IL-2 2.5 ng/mL) [3] | 4.12
SNK-6 (IL-2 2.5 ng/mL) [13] | 1.27
YT (IL-2 2.5 ng/mL) [9] | 1.18
[2] | 0
[5] | 3.07
[6] | 0.81
[7] | 0
[27] | 0.21

percent inhibition of viability [%]
Settings | 0.1 nM | 1 nM | 10 nM | 100 nM | 1000 nM
DERL-7 (IL-2 2.5 ng/mL) [25] | 0.65 | 12 | 4.33 | 3.09 | 5.77
IMC-1 (IL-2 20 ng/mL) [21] | -10.2 | -0.55 | 2.58 | 3.59 | 11.7
KAI3 (IL-2 2.5 ng/mL) [24] | 0.83 | 0.57 | 5.8 | 15.9 | 18.7
KHYG-1 (IL-2 2.5 ng/mL) [23] | -1.35 | -9.6 | -4.7 | -0.32 | 6.6
NK-92 (IL-2 2.5 ng/mL) [17] | -8.61 | -19.7 | -10.4 | 1.68 | 9.5
NK-YS (IL-2 2.5 ng/mL) [14] | -1.26 | -3.32 | -4.3 | -2.46 | 7.41
NKL (IL-2 2.5 ng/mL) [16] | -6.59 | -3.17 | 6.86 | 22.1 | 18.6
SNK-6 (IL-2 2.5 ng/mL) [26] | -8.3 | -5.78 | 6.93 | -1.06 | 30.7
YT (IL-2 2.5 ng/mL) [22] | -1.63 | -5.24 | 0.65 | 14.1 | 7.45
[15] | -2.75 | 5.35 | 5.93 | -3.36 | 6.54
[18] | 0.51 | 14 | 13.1 | 8.85 | 9.5
[19] | -1.26 | 20.1 | 12.4 | 9.93 | 10.7
[20] | -16.2 | 4.82 | 5.78 | 1.94 | 4.66
[28] | -0.43 | -4.83 | -0.59 | 0.99 | 13.7

O=C(CCCCCCC(=O)Nc1ccc([C@H]2O[C@@H](CSc3nc(-c4ccccc4)c(-c4ccccc4)o3)C[C@@H](c3ccc(CO)cc3)O2)cc1)NO [Tubacin] (max concentration tested 10000 nM)
Settings | drug sensitivity score
DERL-7 (IL-2 2.5 ng/mL) [12] | 7.93
IMC-1 (IL-2 20 ng/mL) [8] | 6.44
KAI3 (IL-2 2.5 ng/mL) [11] | 6.87
KHYG-1 (IL-2 2.5 ng/mL) [10] | 4.84
NK-92 (IL-2 2.5 ng/mL) [4] | 6.62
NK-YS (IL-2 2.5 ng/mL) [1] | 5.76
NKL (IL-2 2.5 ng/mL) [3] | 8.82
SNK-6 (IL-2 2.5 ng/mL) [13] | 7.71
YT (IL-2 2.5 ng/mL) [9] | 5.78
[2] | 0.27
[5] | 2.14
[6] | 3.59
[7] | 0.95
[27] | 3.3

percent inhibition of viability [%]
Settings | 1 nM | 10 nM | 100 nM | 1000 nM | 10000 nM
DERL-7 (IL-2 2.5 ng/mL) [25] | -2.36 | 4.2 | 7.74 | 19.8 | 86.6
IMC-1 (IL-2 20 ng/mL) [21] | -1.32 | 0.91 | 3.12 | 6.34 | 99
KAI3 (IL-2 2.5 ng/mL) [24] | -2.25 | -0.51 | -0.15 | 12 | 87.7
KHYG-1 (IL-2 2.5 ng/mL) [23] | -2.84 | -3.16 | 1.24 | 0.88 | 84.9
NK-92 (IL-2 2.5 ng/mL) [17] | -7.58 | 4.48 | 12.8 | 18.2 | 74.3
NK-YS (IL-2 2.5 ng/mL) [14] | -6.18 | -3.18 | -0.57 | 4.16 | 93.2
NKL (IL-2 2.5 ng/mL) [16] | -14.5 | -0.93 | -1.27 | 28.3 | 86.2
SNK-6 (IL-2 2.5 ng/mL) [26] | -5.06 | 2.23 | 22.3 | 16.9 | 89.8
YT (IL-2 2.5 ng/mL) [22] | 0.56 | 0.68 | 3.58 | 5.84 | 88.3
[15] | -6.56 | -3.63 | 5.33 | -0.47 | 15.8
[18] | 2.38 | 1.13 | 3.02 | -4.6 | 47.5
[19] | -6.72 | -11.8 | 5.02 | -11.8 | 77.7
[20] | -4.13 | -4.61 | 0.44 | 0.6 | 24
[28] | -0.3 | 4.86 | 3.67 | 7.82 | 40.4

COc1nc(N)nc2c1ncn2[C@@H]1O[C@H](CO)[C@@H](O)[C@@H]1O [Nelarabine] (max concentration tested 10000 nM)
Settings | drug sensitivity score
DERL-7 (IL-2 2.5 ng/mL) [12] | 4.29
IMC-1 (IL-2 20 ng/mL) [8] | 0
KAI3 (IL-2 2.5 ng/mL) [11] | 8.27
KHYG-1 (IL-2 2.5 ng/mL) [10] | 1.02
NK-92 (IL-2 2.5 ng/mL) [4] | 2.5
NK-YS (IL-2 2.5 ng/mL) [1] | 0.54
NKL (IL-2 2.5 ng/mL) [3] | 4.79
SNK-6 (IL-2 2.5 ng/mL) [13] | 0
YT (IL-2 2.5 ng/mL) [9] | 0
[2] | 15.7
[5] | 14.4
[6] | 25.3
[7] | 13.8
[27] | 6.13

percent inhibition of viability [%]
Settings | 1 nM | 10 nM | 100 nM | 1000 nM | 10000 nM
DERL-7 (IL-2 2.5 ng/mL) [25] | 1.44 | 7.77 | 2.31 | 12.4 | 46.1
IMC-1 (IL-2 20 ng/mL) [21] | -3.75 | -1.52 | -5.24 | -11.7 | -10.4
KAI3 (IL-2 2.5 ng/mL) [24] | 15.6 | 16.4 | 12.6 | 25.8 | 53.3
KHYG-1 (IL-2 2.5 ng/mL) [23] | 4.68 | -0.73 | -1.55 | -1.11 | 27.2
NK-92 (IL-2 2.5 ng/mL) [17] | 8.71 | -6.85 | 4.79 | 8.69 | 32
NK-YS (IL-2 2.5 ng/mL) [14] | 2.42 | -3.62 | 0.15 | 3.98 | 14.6
NKL (IL-2 2.5 ng/mL) [16] | 5.77 | 8.18 | 3.83 | 10.4 | 56.7
SNK-6 (IL-2 2.5 ng/mL) [26] | 2.48 | -13.9 | -9.19 | -25.6 | -2.36
YT (IL-2 2.5 ng/mL) [22] | 2.6 | -3.18 | 0.56 | 1.65 | 5.92
[15] | 11.4 | 8.39 | 27.7 | 65.5 | 82.3
[18] | -10.4 | -4.07 | 23.9 | 61.1 | 92.1
[19] | 14.4 | 22.7 | 58.9 | 88.3 | 91.7
[20] | -2.48 | 5 | 21.2 | 59.8 | 82.4
[28] | 0.53 | 1.13 | 1.94 | 15.5 | 66.8
